PMC3685428 (ACS medicinal chemistry letters, 2012)

Assays:
P. falciparum Dd2 strain = assay: Proliferation of erythrocyte-stage P. falciparum, Dd2 strain; format: cell-based; details: Plasmodium falciparum; for IC50: DD2, Erythrocyte, read-out: IC50 against P. falciparum proliferation, Dd2 strain
P. falciparum 3D7 strain = assay: Proliferation of erythrocyte-stage P. falciparum, 3D7 strain; format: cell-based; details: Plasmodium falciparum; for IC50: 3D7, Erythrocyte, read-out: IC50 against P. falciparum proliferation, 3D7 strain
[1] = biological target: T1, recombinant P. falciparum DXR (PfDXR) (Plasmodium falciparum, UniProt O96693); assay: Enzyme inhibition of recombinant P. falciparum DXR; format: biochemical; details: relative to compound 7
T1 sequence (O96693 73-488): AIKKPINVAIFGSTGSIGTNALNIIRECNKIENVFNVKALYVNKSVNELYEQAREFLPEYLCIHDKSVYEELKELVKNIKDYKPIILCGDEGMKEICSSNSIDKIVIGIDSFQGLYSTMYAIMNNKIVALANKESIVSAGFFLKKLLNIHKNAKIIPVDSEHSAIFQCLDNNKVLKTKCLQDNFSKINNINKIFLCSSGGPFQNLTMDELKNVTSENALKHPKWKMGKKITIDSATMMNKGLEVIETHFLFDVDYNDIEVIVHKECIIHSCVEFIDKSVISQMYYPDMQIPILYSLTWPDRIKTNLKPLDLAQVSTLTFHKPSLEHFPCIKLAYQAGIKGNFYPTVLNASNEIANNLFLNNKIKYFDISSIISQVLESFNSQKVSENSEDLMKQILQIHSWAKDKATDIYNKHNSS

[2] = background statement, cited from earlier work
P. falciparum malaria = details: clinical trials, in combination with clindamycin ref 7, 8; cited from earlier work

| Compound | IC50 (P. falciparum Dd2 strain) [nM] | IC50 (P. falciparum 3D7 strain) [nM] | EC50 (P. falciparum Dd2 strain; DD2, read-out: EC50 against P. falciparum Dd2) [nM] | Fold more inhibitory potency than compound 7 against PfDXR [1] | EC50 (P. falciparum 3D7 strain; 3D7, read-out: EC50 against P. falciparum 3D7) [nM] | Oral availability [2] | Half life in plasma ([2]; plasma) | Clinical efficacy against P. falciparum malaria (P. falciparum malaria) |
| --- | --- | --- | --- | --- | --- | --- | --- | --- |
| O=CN(O)CCC(c1cccnc1)P(=O)(O)O (centres unmarked) [4m] | 180 | 340 | – | – | – | – | – | – |
| O=CN(O)CCC(c1ccncc1)P(=O)(O)O (centres unmarked) [4p] | 170 | 180 | – | – | – | – | – | – |
| CC(=O)N(O)CCC(c1cccnc1)P(=O)(O)O (centres unmarked) [5m] | 310 | 440 | 630 | – | – | – | – | – |
| CC(=O)N(O)CCC(c1ccncc1)P(=O)(O)O (centres unmarked) [5p] | 460 | 630 | – | ~ 6 × | 310 | – | – | – |
| CCN(CC)CCCC(C)Nc1ccnc2cc(Cl)ccc12 (centres unmarked) [CQ, chloroquine, reference compound] | 120 | 21 | – | – | – | – | – | – |
| O=CN(O)CCCP(=O)(O)O [compound 1, Fosmidomycin] | 440 | 1170 | – | – | – | poor | ~ 1 h | effective against P. falciparum malaria |
| CC(=O)N(O)CCC(c1ccccc1)P(=O)(O)O (centres unmarked) [compound 7] | 1700 | 3500 | – | – | – | – | – | – |
